Values quoted from earlier work in PubChem BioAssay AID1259409 (Chemical Carcinogenesis Research Information System (CCRIS), 2018).

Tested on: rodent chemically induced tumor inhibition, incidence and multiplicity
Assay: CCRIS tumor inhibitor studies
Details: Carcinogen: DIETHYLNITROSAMINE, 55-18-5, N-METHYL-N-NITROSOUREA, 684-93-5, N-BUTYL-N-(4-HYDROXYBUTYL)NITROSAMINE, 3817-11-6, 1,2-DIM, Carcinogen: DIETHYLNITROSAMINE, 55-18-5, N-METHYL-N-NITROSOUREA, 684-93-5, N-BUTYL-N-(4-HYDROXYBUTYL)NITROSAMINE, 3817-11-6, 1,2-DIM, Dose [Inhibitor]: 0, 0.3% IN DIET FOR 23 WK BEGINNING 1 WK POST CARCINOGEN TREATMENT (STUDY DURATION: 28 WK), Route [Inhibitor]: ORAL, Species: RAT, Strain/Sex: F344/MALE, Dose [Carcinogen]: 100 MG/KG BW DEN ONCE, 20 MG/KG BW MNU ONCE ON DAYS 6,9, AND 12, 0.05% BBN IN DRINKING WATER FOR FIRST TWO WK, 40 MG/KG, Dose [Carcinogen]: 100 MG/KG BW DEN ONCE, 20 MG/KG BW MNU ONCE ON DAYS 6,9, AND 12, 0.05% BBN IN DRINKING WATER FOR FIRST TWO WK, 40 MG/KG, Promoter: NONE USED

C[C@]12CC[C@H](O)CC1=CC[C@@H]1[C@@H]2CC[C@]2(C)C(=O)CC[C@@H]12
tumour outcome (control, treated, inhibition, significance) (Target Tissue: Type of Lesion: LIVER: HEPATOCELLULAR ADENOMA, HYPERPLASTIC NODULES): 2/20 (10%), 15/20 (75%), -650%, p<0.01 | tumour outcome (control, treated, inhibition, significance) (Target Tissue: Type of Lesion: LUNG: ADENOCARCINOMA): 1/20 (5%), 0/20 (0%), 100%, not significant | tumour outcome (control, treated, inhibition, significance) (Target Tissue: Type of Lesion: LUNG: ADENOMA): 8/20 (40%), 5/20 (25%), 38%, not significant | outcome (Target Tissue: Type of Lesion: SMALL INTESTINE: ADENOCARCINOMA): 2/20 (10%), 0/20 (o%), 100%, not significant | tumour outcome (control, treated, inhibition, significance) (Target Tissue: Type of Lesion: SMALL INTESTINE: ADENOMA): 5/20 (25%), 2/20 (10%), 60%, not significant | tumour outcome (control, treated, inhibition, significance) (Target Tissue: Type of Lesion: THYROID: FOLLICULAR ADENOMA): 6/20 (30%), 1/20 (5%), 83%, p<0.05 | tumour outcome (control, treated, inhibition, significance) (Target Tissue: Type of Lesion: THYROID: FOLLICULAR CARCINOMA): 1/20 (5%), 2/20 (10%), -100%, not significant
